In US4255519A, “Glycerol oxidase and process for the production thereof” (priority 1978, dated 1981):

test system: glycerol oxidase II; assay: Substrate affinity: Michaelis constant against glycerol; format: biochemical, Penicillium sp. KY 868; details: glycerol oxidase II of the genus Penicillium
Excerpt: *Determination of Michaelis constant is described in the following reference. H. Lineweaver and D. Burk, J. Amer. Chem. Soc., 56, 658 (1934).

Compound	Km [mM]
OCC(O)CO [Glycerol]	8

test system: glycerol oxidase II; assay: Substrate specificity, relative activity by 4-AA method; format: biochemical, Penicillium sp. KY 868; details: not given
Experimental: The relative activity is measured using other substrates in equimolar amounts to that of glycerol in the procedure for measuring the activity according to 4-AA method.
The relative activities on other substrates are given in Table 3, the activity on glycerol being defined as 100.
The enzyme activity is expressed by "unit." A "unit" of the enzyme activity is defined as that amount of enzyme which will decompose 1 μ mole of glycerol at 37° C. in 1 minute in the presence of oxygen. The determination of the enzyme activity is carried out as follows: glycerol is reacted with glycerol oxidase II with stirring to form hydrogen peroxide, and 4-aminoantipyrine and phenol are reacted with the resulting hydrogen peroxide in the presence of peroxidase to derive quinoneimine pigment. The optical density in the visible portion of the resulting quinoneimine pigment is measured to determine the amount of generated hydrogen peroxide, whereby the enzyme activity is determined (which will be hereinafter referred to as "4-AA method").
The reagents (1)-(6) are mixed in a test tube, and then shaken at 37° C. for 5 minutes. Then, enzyme solution is added thereto, and thus obtained mixture is made up to 3 ml with TES buffer solution. Reaction is carried out at 37° C. for 10 minutes with shaking. On the other hand, similar procedure is repeated using water in place of the test solution as a reference. The optical density of the reaction solution at 500 nm is measured, and a difference from the control is determined as ΔOD (optical density).

Compound	Substrate specificity (in words)
O=C(CO)CO [Dihydroxyacetone]	reacts specifically
OCC(O)CO [Glycerol]	reacts specifically

same assay, conditions: substrate equimolar to glycerol; activity on glycerol defined as 100; 4-AA method

Compound	Relative activity
CCCO [n-Propyl alcohol]	11
CCC(C)O (stereo not shown) [sec-Butyl alcohol]	9
OCCCCO [1,4-Butanediol]	11
CC(C)O [iso-Propyl alcohol]	23
CC(O)C(C)O (stereo not shown) [2,3-Butanediol]	16
CCCCO [n-Butyl alcohol]	7
CCO [Ethanol]	11
O=P(O)(O)OCC(O)CO (stereo not shown) [Glycerol-3-phosphoric acid]	12
CC(O)CO (stereo not shown) [1,2-Propanediol]	11
O=C(CO)CO [Dihydroxyacetone]	293
OCCCO [1,3-Propanediol]	23
CC(C)CO [iso-Butyl alcohol]	14
OCC(O)CO [Glycerol]	100
CC(O)CCO (stereo not shown) [1,3-Butanediol]	11

test system: glycerol oxidase II; assay: Inhibitors of enzyme: activity with 1 mM inhibitor, oxygen consumption rate by Warburg's manometer; format: biochemical, Penicillium sp. KY 868; details: activity with no inhibitor defined as 100, from oxygen consumption rate
Experimental: Enzymes activities obtained by adding 1 mM of various inhibitors are shown in Table 1, the activity of the enzyme with no addition of the inhibitor being defined as 100. The activities are calculated from consumption rate of oxygen used in reaction measured by Warburg's manometer.

Compound	Relative rate (%)
CC(=O)[O-].CC(=O)[O-].[Pb+2] [Pb(CH3 COO)2]	26.3
c1ccc(-c2ccccn2)nc1 [α,α'-Dipyridyl]	75.7
O=C(O)CN(CCN(CC(=O)O)CC(=O)O)CC(=O)O [EDTA]	82.8
c1cnc2c(c1)ccc1cccnc12 [o-Phenanthroline]	65.5
O=C(O)c1cc[c]([Hg][Cl])cc1 [p-Chloromercuri benzoate]	81.4
[Cl-].[Cl-].[Zn+2] [ZnCl2]	84.3
NO [NH2 OH]	0
O=[N+]([O-])[O-].[Ag+] [AgNO3]	0
[Cl][Hg][Cl] [HgCl2]	79.0
CCN(CC)C(=S)S [Diethyl dithiocarbamate]	0
Cc1ccc2ccc3ccc(C)nc3c2n1 [Neocuproine]	80.3
O=S(=O)([O-])[O-].[Fe+2] [FeSO4]	0

test system: glycerol oxidase I; assay: not given; details: glycerol oxidase I of Neurospora crassa (U.S. application Ser. No. 897,695); cited from earlier work

Compound	Km [mM]
OCC(O)CO [Glycerol]	19

test system: glycerol oxidase I; assay: not given; details: glycerol oxidase I of Aspergillus japonicus (U.S. application Ser. No. 897,695); cited from earlier work

Compound	Km [mM]
OCC(O)CO [Glycerol]	18.5
